Source: US9718813B2, “Imidazolin-5-one derivative useful as FASN inhibitors for the treatment of cancer” (Janssen Pharmaceutica, NV, priority 2013, dated 2017)

Key:
[1] = target: hFASN enzyme (full length) (Homo sapiens (Human), UniProt P49327); assay: Fatty Acid Synthase (FASN) Inhibition Scintillation Proximity Assay; type: biochemical; conditions: 3H-acetyl-CoA and malonyl-CoA substrates, SPA, mean if tested more than once
In short: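 Full-length human FASN (300 ng, in-house purified) in 100 mM KH2PO4 pH 7.5, 1 mM DTT converts 3H-acetyl-CoA plus malonyl-CoA to hydrophobic 3H-palmitate, captured by streptavidin imaging beads and read on LEADseeker at 610 nm after ≥24 h. Compounds tested 0.01–30 μM; data normalized to plate controls and fitted to 4-parameter logistic curves.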

A2780 ovarian cells [2] = assay: A2780 Ovarian Cell Proliferation Assay in Lipid Reduced Medium, with Palmitate; type: cell-based; conditions: 10% lipid-reduced serum, 25 μM palmitate, 96 h, MTT; for IC50: Homo sapiens, read-out: pIC50 With Palmitate (converted)
Description: (§1) The biological assays described below correspond to comparative assays for ovarian cell proliferation.
2500 cells were seeded in a 96-well clear well plate in 200 μL RPM11640 with 10% Fetal Calf Serum (Hyclone), and incubated at 37° C., 5% CO2. Blanks were wells without cells. The next day the culture medium was aspirated and replaced by 160 μL culture medium with 10% Lipid-Reduced Serum (LRS, Hyclone). […] After 96 h incubation, an MTT assay was performed.

[3] = target: FASN Keto-reductase Domain (hFASN enzyme, full length) (Homo sapiens (Human), UniProt P49327); assay: Fatty Acid Synthase Keto-reductase Domain (FASN KR) Inhibition; type: biochemical; conditions: NADPH oxidation at 340 nm, ethyl acetoacetate substrate
FASN Keto-reductase Domain (hFASN enzyme, full length), sequence (P49327 whole entry, the tested form may be a part): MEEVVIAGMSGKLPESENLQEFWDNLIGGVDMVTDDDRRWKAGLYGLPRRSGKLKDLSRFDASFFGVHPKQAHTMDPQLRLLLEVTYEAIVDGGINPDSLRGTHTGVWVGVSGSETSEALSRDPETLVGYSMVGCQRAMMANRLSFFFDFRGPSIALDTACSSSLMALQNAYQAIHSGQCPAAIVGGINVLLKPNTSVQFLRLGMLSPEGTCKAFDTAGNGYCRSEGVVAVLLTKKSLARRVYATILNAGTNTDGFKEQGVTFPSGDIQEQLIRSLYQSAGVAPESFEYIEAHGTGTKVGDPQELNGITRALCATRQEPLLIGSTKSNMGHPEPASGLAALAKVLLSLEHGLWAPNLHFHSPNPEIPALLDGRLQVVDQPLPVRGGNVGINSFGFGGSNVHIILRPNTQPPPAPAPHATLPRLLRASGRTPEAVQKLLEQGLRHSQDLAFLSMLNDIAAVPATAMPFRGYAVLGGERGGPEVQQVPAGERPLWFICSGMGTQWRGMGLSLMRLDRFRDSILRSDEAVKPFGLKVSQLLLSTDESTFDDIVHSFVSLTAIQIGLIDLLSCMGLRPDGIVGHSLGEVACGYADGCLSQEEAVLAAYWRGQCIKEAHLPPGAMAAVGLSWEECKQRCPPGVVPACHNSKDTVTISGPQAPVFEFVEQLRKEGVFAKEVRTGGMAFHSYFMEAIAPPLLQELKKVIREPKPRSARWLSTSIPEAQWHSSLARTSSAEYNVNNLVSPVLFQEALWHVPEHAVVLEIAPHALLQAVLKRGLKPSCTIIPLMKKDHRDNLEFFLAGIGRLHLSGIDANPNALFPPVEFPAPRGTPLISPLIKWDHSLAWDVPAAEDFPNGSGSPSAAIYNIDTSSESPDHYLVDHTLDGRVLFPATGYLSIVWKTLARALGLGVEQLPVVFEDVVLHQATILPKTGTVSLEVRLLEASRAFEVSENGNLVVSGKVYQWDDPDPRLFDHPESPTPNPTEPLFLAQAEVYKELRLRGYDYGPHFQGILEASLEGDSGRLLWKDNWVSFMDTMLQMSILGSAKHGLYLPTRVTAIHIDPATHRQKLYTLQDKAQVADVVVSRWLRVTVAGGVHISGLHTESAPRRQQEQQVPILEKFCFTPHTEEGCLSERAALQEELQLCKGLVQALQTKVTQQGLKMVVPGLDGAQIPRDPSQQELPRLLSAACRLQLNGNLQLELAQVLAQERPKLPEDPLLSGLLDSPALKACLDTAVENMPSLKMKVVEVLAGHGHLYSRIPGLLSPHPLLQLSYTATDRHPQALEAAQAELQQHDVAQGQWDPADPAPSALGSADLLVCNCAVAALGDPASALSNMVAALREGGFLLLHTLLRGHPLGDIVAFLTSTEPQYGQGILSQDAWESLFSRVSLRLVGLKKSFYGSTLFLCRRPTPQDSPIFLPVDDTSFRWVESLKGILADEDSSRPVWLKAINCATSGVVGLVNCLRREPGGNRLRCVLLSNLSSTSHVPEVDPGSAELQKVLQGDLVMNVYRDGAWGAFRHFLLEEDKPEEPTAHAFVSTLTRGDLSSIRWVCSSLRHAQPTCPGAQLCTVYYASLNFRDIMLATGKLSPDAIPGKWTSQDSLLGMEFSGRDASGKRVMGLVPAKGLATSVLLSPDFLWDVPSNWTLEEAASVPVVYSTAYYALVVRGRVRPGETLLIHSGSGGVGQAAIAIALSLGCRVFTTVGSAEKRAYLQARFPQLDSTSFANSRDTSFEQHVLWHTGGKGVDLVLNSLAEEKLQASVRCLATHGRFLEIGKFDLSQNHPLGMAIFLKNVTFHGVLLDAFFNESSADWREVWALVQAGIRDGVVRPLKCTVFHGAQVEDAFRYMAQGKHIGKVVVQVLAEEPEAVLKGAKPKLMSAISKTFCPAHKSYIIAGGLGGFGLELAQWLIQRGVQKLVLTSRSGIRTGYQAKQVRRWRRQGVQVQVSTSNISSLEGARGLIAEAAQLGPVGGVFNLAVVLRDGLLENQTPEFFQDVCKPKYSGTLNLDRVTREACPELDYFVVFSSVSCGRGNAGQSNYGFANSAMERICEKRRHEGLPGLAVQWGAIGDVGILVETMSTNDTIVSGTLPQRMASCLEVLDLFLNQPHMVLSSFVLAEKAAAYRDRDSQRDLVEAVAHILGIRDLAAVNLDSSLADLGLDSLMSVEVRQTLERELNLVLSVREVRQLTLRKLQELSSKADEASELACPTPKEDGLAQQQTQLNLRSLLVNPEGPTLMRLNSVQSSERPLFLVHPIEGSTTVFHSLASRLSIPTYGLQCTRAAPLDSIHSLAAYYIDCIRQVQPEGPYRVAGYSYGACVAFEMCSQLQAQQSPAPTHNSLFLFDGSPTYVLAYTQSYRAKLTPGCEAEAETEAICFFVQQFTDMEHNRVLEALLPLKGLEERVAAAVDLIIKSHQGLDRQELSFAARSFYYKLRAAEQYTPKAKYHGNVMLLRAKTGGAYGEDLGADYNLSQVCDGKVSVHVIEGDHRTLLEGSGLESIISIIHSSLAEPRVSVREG
In short: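 Absorbance was read before (T1) and after 20 min incubation at room temperature (T2), with the decrease T1−T2 as signal. Data were normalized to plate high and low controls as % Controlmin; IC50 came from a 4-parameter logistic fit of Controlmin versus compound concentration.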

[4] = test system: PC-3M-Luc-C6 prostate cells; assay: In Vitro PC-3M-Luc-C6 Prostate Cell Proliferation Assay in Lipid Reduced Medium; type: cell-based; conditions: 96 h
Description: PC-3M-Luc-C6 prostate cells were obtained from Xenogen Corporation. […] The cells were passaged twice a week.
The next day 10 μl test compound/DMSO diluted in medium was added (3E-5M, 1E-5M, 3E-6M, 1E-6M, 3E-7M, 1E-7M, 3E-8M, 1E-8M final concentration). Compounds were tested in duplicate. After 96 h incubation at 37° C., 5% CO2 25 μl ATP-glow mix was added. The plate was incubated for 30 min at 37° C. and luminescence was measured with the Envision.
(§2) pIC50 values were calculated as follows. Raw data generated by the instruments were normalized to % Controlmin values, which were calculated as: % Controlmin=100*(x−mLC)/(mHC−mLC),
(§3) where mLC and mHC are the means of the low control wells and high control wells on the plate, after manual exclusion of outliers. The relation between the % Controlmin values and concentration was fitted to a 4-parameter logistic curve using a non-linear least squares regression method to determine the pIC50 value. Outlying data points were excluded manually to get a correct fit. […] The IC50 parameter was always determined by non-linear regression, but one or more of the other parameters may have been held fixed on a relevant input value, such as 0 for the bottom values.

[5] = test system: LNCaP_Vancouver prostate cells; assay: In Vitro LNCaP Vancouver Prostate Cell Proliferation Assay in Lipid Reduced Medium; type: cell-based; conditions: 96 h, 10% lipid reduced serum, ATP-glow
Description: LNCaP_Vancouver prostate cells were obtained from the Vancouver Prostate Cancer Centre.
Compounds were tested in duplicate. After 96 h incubation at 37° C., 5% CO2 25 μl ATP-glow mix was added. The plate was incubated for 30 min at 37° C. and luminescence was measured with the Envision.
as §2, §3

A2780 ovarian cells [6] = assay: A2780 Ovarian Cell Proliferation Assay in Lipid Reduced Medium, without Palmitate; type: cell-based; conditions: 10% lipid-reduced serum, no palmitate, 96 h, MTT
Description: as §1
2500 cells were seeded in a 96-well clear well plate in 200 μL RPM11640 with 10% Fetal Calf Serum (Hyclone), and incubated at 37° C., 5% CO2. Blanks were wells without cells. The next day the culture medium was aspirated and replaced by 160 μL culture medium with 10% Lipid-Reduced Serum (LRS, Hyclone). 20 μL test compound (at concentrations of 30 μM, 10 μM, 3 μM, 1 μM, 0.30 μM, 0.10 μM, 0.03 μM and 0.01 μM)/DMSO dilution followed by 20 μL ethanol-BSA solution were added to a final concentrations of 0.2% DMSO, 0.2% fatty-acid-free BSA, 0.25% ethanol. After 96 h incubation an MTT assay was performed.
Raw data generated by the instrument were normalized to % Controlmin values, which were calculated as: % Controlmin=100*(x−mLC)/(mHC−mLC)
where mLC and mHC were the means of the low control wells and high control wells on the plate, after manual exclusion of outliers. A plot of Controlmin versus test compound concentration was fitted to a 4-parameter logistic curve using a non-linear least squares regression method.

hFASN enzyme (full length), sequence (P49327 whole entry): as the sequence (P49327 whole entry, the tested form may be a part) above

CC1(C)N=C(c2ccc(-c3ccc4cc(F)ccc4c3)cc2F)N(C[C@@H]2CCN(C(=O)C3CC3)C2)C1=O [Compound 66, (R)-1-((1-(cyclopropanecarbonyl)pyrrolidin-3-yl)methyl)-2-(2-fluoro-4-(6-fluoronaphthalen-2-yl)phenyl)-4,4-dimethyl-1H-imidazol-5(4H)-one] was tested. Which “Human FASN pIC50” value [1] did it give?
The value was 7.48.

What about the IC50 (A2780 ovarian cells [2]) of the same compound?
The IC50 was over 10 µM.

And the “FASN Keto-reductase Domain pIC50” value [3]?
The value was 7.28.

How did the IC50 (A2780 ovarian cells [2]) turn out when CC1(C)N=C(c2ccc(-c3ccc4cccc(F)c4c3)cc2F)N(C[C@@H]2CCN(C(=O)C3CC3)C2)C1=O [Compound 67, (R)-1-((1-(cyclopropanecarbonyl)pyrrolidin-3-yl)methyl)-2-(2-fluoro-4-(8-fluoronaphthalen-2-yl)phenyl)-4,4-dimethyl-1H-imidazol-5(4H)-one] was run?
Its IC50 is over 10 µM.

Which “Human FASN pIC50” value [1] does the source give for CC1(C)N=C(c2ccc(-c3ccc4cnccc4c3)cc2F)N(C[C@@H]2CCN(C(=O)C3CC3)C2)C1=O [Compound 68, (R)-1-((1-(cyclopropanecarbonyl)pyrrolidin-3-yl)methyl)-2-(2-fluoro-4-(isoquinolin-6-yl)phenyl)-4,4-dimethyl-1H-imidazol-5(4H)-one] here?
Its value is 7.26.

And the IC50 (A2780 ovarian cells [2])?
The IC50 was over 10 µM.

And the “FASN Keto-reductase Domain pIC50” value [3]?
Its value is 7.32.

With CC1(C)N=C(c2ccc(-c3ccc4cncnc4c3)cc2F)N(CC2CN(C(=O)C3CC3)C2)C1=O [Compound 43, 1-((1-(cyclopropanecarbonyl)azetidin-3-yl)methyl)-2-(2-fluoro-4-(quinazolin-7-yl)phenyl)-4,4-dimethyl-1H-imidazol-5(4H)-one] as the compound, how does the “Human FASN pIC50” value [1] read?
Its value is 6.11.

And the “FASN Keto-reductase Domain pIC50” value [3]?
Its value is 5.93.

What about the IC50 ([4]; Prostate cell, read-out: pIC50 PC-3M-Luc-C6 prostate cell, 10% lipid reduced serum, 96 h, ATP-glow (converted)) of the same compound?
Its IC50 is 0.871 µM.

What about the IC50 ([5]; Prostate cell, read-out: pIC50 LNCaP_Vancouver prostate cell (converted)) of the same compound?
Its IC50 is 2.34 µM.

For Cn1ncc2cc(-c3ccc(C4=NC(C)(C)C(=O)N4CC4CN(C(=O)C5CC5)C4)c(F)c3)ccc21 [Compound 69, 1-((1-(cyclopropanecarbonyl)azetidin-3-yl)methyl)-2-(2-fluoro-4-(1-methyl-1H-indazol-5-yl)phenyl)-4,4-dimethyl-1H-imidazol-5(4H)-one], which “pIC50 With Palmitate” value (A2780 ovarian cells [2]) is on record?
Its value is under 5.

And the “pIC50 PC-3M-Luc-C6 prostate cell” value ([4]; 10% lipid reduced serum, ATP-glow)?
Its value is 7.04.

What about the “pIC50 LNCaP_Vancouver prostate cell” value [5] of the same compound?
Its value is 6.87.

And the “pIC50 Without Palmitate” value (A2780 ovarian cells [6])?
Its value is 7.19.

With CC1(C)N=C(c2ccc(-c3ccc4cc(F)ccc4c3)cc2)N(C[C@@H]2CCN(C(=O)C3CC3)C2)C1=O [Compound 30, (R)-1((1-(cyclopropanecarbonyl)pyrrolidin-3-yl)methyl)-2-(4-(6-fluoronaphthalen-2-yl)phenyl)-4,4-dimethyl-1H-imidazol-5(4H)-one] as the compound, how does the “Human FASN pIC50” value [1] read?
Its value is 7.26.

What about the “FASN Keto-reductase Domain pIC50” value [3] of the same compound?
The value was 7.17.

What does the source list for CC1(C)N=C(c2ccc(-c3ccc(-c4ccncc4)cc3)cc2F)N(CC2CN(C(=O)C3CC3)C2)C1=O [Compound 22, 1-((1-(cyclopropanecarbonyl)azetidin-3-yl)methyl)-2-(3-fluoro-4′-(pyridin-4-yl)-[1,1′-biphenyl]-4-yl)-4,4-dimethyl-1H-imidazol-5(4H)-one]?
Human FASN pIC50 [1]: 6.80; FASN Keto-reductase Domain pIC50 [3]: 6.57
